Measurements from patent US20240360135A1, “IMIDAZO[1,2-B]PYRIDAZINYL COMPOUNDS AND USES THEREOF” (Sumitomo Pharma Oncology, Inc., priority 2021, published 2024).
Like-named read-outs stand apart in the source and are kept apart here.

Legend:
PIM3 = target: T1, PIM3 (Homo sapiens, UniProt Q86V86); assay: RBC HotSpot kinase inhibition assay, PIM3; assay type: biochemical
T1 construct: purchased Millipore 14-738
Description: (§1) Reagents. Base Reaction Buffer: 20 mM Hepes (pH 7.5), 10 mM MgCl2, 1 mM EGTA, 0.01% Brij35, 0.02 mg/ml BSA, 0.1 mM Na3VO4, 2 mM DTT, 1% DMSO. The following kinases were used in the assay at the indicated concentrations:
(§2) The following substrates were used in combination with the indicated kinases in the assay at the indicated concentration:
(§3) No cofactors were added to any of the reactions.
(§4) • 1. Prepared substrate in freshly prepared Reaction Buffer. • 2. Delivered kinase into the substrate solution and gently mixed. • 3. Delivered test compound in 100% DMSO into the kinase reaction mixture by Acoustic technology (Echo550; nanoliter range), incubated for 20 minutes at room temperature. • 4. Delivered ^33P-ATP into the reaction mixture to initiate the reaction. • 5. Incubated for 2 hours at room temperature. • 6. Detected kinase activity by P81 filter-binding method.
(§5) The results of the RBC HotSpot™ kinase assay are set forth in Table 1, wherein “A” indicates an IC50<10 nM, “B” indicates an IC50 wherein 10 nM≤IC50≤100 nM, and “C” indicates an IC50>100 nM.

A549 cells = assay: Wound healing assay in A549 cells with TGF-β; assay type: cell-based; conditions: for IC50: Homo sapiens, wound healing, A549, 5 ng/ml TGF-β; for migration (wound closure): after 72 hours, vs vehicle control with TGF-β
Description: Overview. Epithelial to mesenchymal transition (EMT) is used to describe epithelial cells losing their cell to cell adhesion and polarity while gaining migratory and invasive properties. The process of EMT is required for normal embryonic development and wound healing, but has also been implicated in fibrosis. In humans, TGF-β signaling is the main driver of EMT, and inhibiting this pathway may be beneficial in various diseases such as fibrosis. A wound healing assay was used to study cell migration and cell-cell interaction, and probe the EMT properties of lung epithelial cells (A549) in presence of Compound 2 or Compound 4.
Procedure. A549 cells (ATCC, CCL-185) were seeded into the ImageLock plate (Essen Bioscience) at 2×10^4 cells/well in 100 μL of complete growth media. Cells were incubated overnight at 37° C., 5% CO2. The next day, cells were washed with 1×PBS and Compound 2, Compound 4, DMSO control (±TGF-β) or galunisertib (TGF-β inhibitor used as positive control) was added to the cells in a serum-free F12K media (0.2% DMSO final, 10 μM starting concentration, 3-fold dilution, 8-doses) in presence of 5 ng/ml TGF-β. Cells were incubated for 48 hours (until they reached confluency) at 37° C., 5% CO2. Wounds were simultaneously created using a WoundMaker™ (Essen Bioscience). Debris and non-attached cells were removed by gently washing once with F12K.
Test compound or control compound and TGF-β were added to the cells in F12K+10% FBS as previously described. The ImageLock plate was put into IncuCyteS3 instrument installed inside a 5% CO2 incubator. The plate was allowed to equilibrate in the IncuCyteS3 instrument for 15 minutes prior to scheduling the first scan and data recording. The plate was incubated for 72 hours at 37° C., and wound closure was recorded in real time with the IncuCyte S3 imaging system. Percentage of relative wound density was quantitatively calculated by the IncuCyte software.

PIM2 = target: T2, PIM2 (Homo sapiens, UniProt Q9P1W9); assay: RBC HotSpot kinase inhibition assay, PIM2; assay type: biochemical
T2 construct: purchased Invitrogen PR6347B
T2 sequence (Q9P1W9 whole entry): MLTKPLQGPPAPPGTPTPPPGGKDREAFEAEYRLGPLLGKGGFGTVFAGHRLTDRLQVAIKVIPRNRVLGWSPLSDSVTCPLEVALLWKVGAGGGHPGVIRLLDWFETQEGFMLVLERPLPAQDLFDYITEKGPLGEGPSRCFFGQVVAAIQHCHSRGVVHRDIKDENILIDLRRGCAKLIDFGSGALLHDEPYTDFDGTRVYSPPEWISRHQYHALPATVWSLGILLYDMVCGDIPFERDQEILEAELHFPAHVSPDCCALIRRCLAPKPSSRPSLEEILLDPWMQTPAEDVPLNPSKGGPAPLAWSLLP
Description: as §1, §2, §3, §4, §5

[1] = system: IL-23-induced hyperplasia; assay: IL-23 induced hyperplasia mouse model (psoriasis study); assay type: in vivo, C57BL/6J mice; conditions: for IL-17A production in ear tissue / IL-22 synthesis in ear tissue: day four; for thickness of the ear epidermal tissue: vs rmIL-23/vehicle; for gross ear thickness: caliper, vs rmIL-23/vehicle control group, BID dosing
Description: The IL-23-induced hyperplasia model involves the injection of IL-23 into the ear of mice, and is dependent on IL-22 for the development of dermal inflammation and acanthosis. This model is commonly used to investigate pathways involved in psoriasis as well as potential therapies. To test the ability of Compounds 2 and 4 to reduce psoriasis in vivo, an IL-23 induced hyperplasia mouse model was utilized, and analyses of end-points, such as IL-17A and IL-22 levels, and histological measure of epidermal thickness of the ear tissue, were performed. Procedure. Female C57BL/6J mice between 9 to 13 weeks old (purchased from Taconic Biosciences) were weighed on the day prior to study start to establish a baseline. All treatment arms contained ten animals. All animals, except the sham/vehicle group received 0.4 μg of recombinant mouse IL-23 (rmIL-23) in a volume of 20 μL intradermally into one ear. Mice in group 1 (sham/vehicle) received 20 μL PBS. A total of 4 injections per ear was performed while the second ear was not injected nor analyzed. All drugs were prepared in 0.5 percent methylcellulose and 2 percent Tween 80. Starting on day zero of the study (0.5 to 4 hours before rmIL-23 injection), two doses of test compound (100 or 150 milligrams per kilogram of Compound 4, or 50 or 75 milligrams per kilogram of Compound 2) were given. All dosing was at the same time (+/−1 hour) each day with no less than 10 hours and no more than 14 hours between doses. On days zero (before rmIL-23 injection), three, and four (approximately 24 hours after the final hyperplasia induction injection), thickness of ears was measured using a caliper. Measurements were performed blind, by a person unaware of group or previous measurements. On day four, approximately 24 hours after the final hyperplasia induction injection, all mice were euthanized, and treated ears collected and weighed. Half of each ear was weighed and frozen for cytokine analysis (IL-17A and IL-22 concentration was measured using the Luminex technology by ELISA). The other half of each ear were fixed in 10 percent buffered formalin following H&E staining for histological analysis.

[2] = 75 milligrams per kilogram twice a day
[3] = 100 milligrams per kilogram twice a day
[4] = 150 milligrams per kilogram twice a day

Row | IC50 (PIM3) [µM] | IC50 (A549 cells; 24 h, read-out: IC50 (μM) 24 h) [µM] | IC50 (A549 cells; 48 h, read-out: IC50 (μM) 48 h) [µM] | IC50 (A549 cells; 72 h, read-out: IC50 (μM) 72 h) [µM] | IC50 (PIM2) [µM] | SMILES | migration (wound closure) (A549 cells) | IL-17A production in ear tissue [1, 2] | IL-22 synthesis in ear tissue [1, 2] | thickness of the ear epidermal tissue [1, 2] | gross ear thickness [1] | IL-17A production in ear tissue [1, 3] | IL-22 synthesis in ear tissue [1, 3] | thickness of the ear epidermal tissue [1, 3] | gross ear thickness, comparison between groups [1, 4] | IL-17A production in ear tissue [1, 4] | IL-22 synthesis in ear tissue [1, 4] | thickness of the ear epidermal tissue [1, 4]
1 | < 0.01 | 1 to 10 | 1 to 10 | 1 to 10 | > 0.1 | Cc1cc(-c2cnc3ccc(NC45CCC(C(C)(C)O)(CC4)CC5)nn23)n[nH]1 [Compound 2, 2-(4-((3-(5-methyl-1H-pyrazol-3-yl)imidazo[1,2-b]pyridazin-6-yl)amino)bicyclo[2.2.2]octan-1-yl)propan-2-ol] | strongly inhibited | strongly inhibited | reduced | significantly reduced | significantly reduced |  |  |  |  |  |  | 
2 | < 0.01 | 1 to 10 | 1 to 10 | 1 to 10 | 0.01 to 0.1 | CC(C)(O)C12CCC(Nc3ccc4ncc(-c5cc(C6CC6)[nH]n5)n4n3)(CC1)CC2 [Compound 4, 2-(4-((3-(5-cyclopropyl-1H-pyrazol-3-yl)imidazo[1,2-b]pyridazin-6-yl)amino)bicyclo[2.2.2]octan-1-yl)propan-2-ol] | strongly inhibited |  |  |  | significantly reduced | strongly inhibited | reduced | significantly reduced | greater effect | strongly inhibited | reduced | significantly reduced
